# Laboratory results from patent EP2924021A1, “ANTI-HIV COMPOUND AND PREPARATION METHOD AND USE THEREOF” (priority 2012, dated 2014).
# Where “and” joins values, the source holds several entries; their conditions need not be identical. Equal values may be shown once. Read-outs that look alike come from different tables or passages of the source.
# Key:
# H9 cells = test: Cytotoxicity in H9 cells (CC50); format: cell-based, human; details: measured twice, average
# Method: (§1) The anti-HIV activity was determined by the "Guiding Principles of Anti HIV Drug Unclinical Pharmacodynamics" of SFDA which is tested by technology standard assay according to International Universal Standards and Methods. Where in CC50, EC50 were measured twice and took the average.
# HIV-1IIIB (C8166 cells) = test: Anti-HIV activity in C8166 cells; format: cell-based; details: for TI: TI(CC50/EC50)
# Method: as §1
# HIV-1IIIB(H9 cells) = test: Anti-HIV activity in H9 cells; format: cell-based; details: for TI: TI(CC50/EC50)
# Method: as §1
# C8166 cells = test: Cytotoxicity in C8166 cells (CC50); format: cell-based, human; details: measured twice, average
# Method: as §1
# HIV-1A17 = details: HIV-1A17, NVP resistant
# Method: as §1
# HIVKM018 = details: HIVKM018, clinical strain
# Method: as §1
# Acute toxicity test = format: in vivo; details: for safety at a high dose: high dose (10g/kg); for acute toxicity test: in vivo
# HIV-1TC-1 = details: HIV-1TC-1, clinical strain
# Method: as §1
# [1] = Pharmacokinetics: metabolism of 67 to 46, blood concentration and bioavailability; format: in vivo; details: after oral gavage of 67 by 100mg/kg
# HIV-2 ROD = test: Anti-HIV-2 activity and cytotoxicity; format: cell-based
# HIV-2 CBL-20 = test: Anti-HIV-2 activity and cytotoxicity; format: cell-based
# [2] = H9 cells, HIV-1IIIB, measured twice, average
# [3] = Human immunodeficiency virus 1, C8166 cells, HIV-1IIIB, measured twice, average, read-out: EC50
# [4] = Human immunodeficiency virus 1, H9 cells, HIV-1IIIB, measured twice, average, read-out: EC50
molecule,measurement,setting,value
5-(dimethylamino)-N-(2-methoxyphenyl)-2-((4-nitrophenyl)thio)benzamide [compound 28],CC50,H9 cells,77.23 µg/mL
same,EC50,"HIV-1IIIB (C8166 cells); C8166 cells, HIV-1IIIB, measured twice, average",83.84 µg/mL
same,EC50,HIV-1IIIB(H9 cells); [2],98.45 µg/mL
same,CC50,C8166 cells,93.04 µg/mL
"COc1ccccc1NC(=O)c1cc(C(F)(F)F)ccc1Sc1ccc([N+](=O)[O-])cc1 [compound 22, N-(2-methoxyphenyl)-2-((4-nitrophenyl)thio)-5-(trifluoromethyl)benzamide]",EC50,HIV-1IIIB (C8166 cells); [3],> 200 µg/mL
same,EC50,HIV-1IIIB(H9 cells); [4],> 200 µg/mL
"COc1ccccc1NC(=O)c1cc(N)ccc1Sc1ccc([N+](=O)[O-])cc1 [compound 24, 5-amino-N-(2-methoxyphenyl)-2-((4-nitrophenyl)thio)benzamide]",EC50,HIV-1IIIB (C8166 cells); [3],2.59 µg/mL
same,EC50,HIV-1IIIB(H9 cells); [4],2.62 µg/mL
"COc1ccccc1NC(=O)c1c(N)cccc1S(=O)(=O)c1ccc([N+](=O)[O-])cc1 [compound 46, 2-amino-N-(2-methoxyphenyl)-6-((4-nitroph-enyl)sulfonyl)benzamide]",TI(CC50/EC50),HIV-1A17,>20
same,TI(CC50/EC50),HIVKM018,>31.65
same,safety at a high dose,Acute toxicity test,very safe
same,acute toxicity test,Acute toxicity test,no abnormal phenomenon occurred
same,TI(CC50/EC50),HIV-1TC-1,>1818.18
same,TI,HIV-1IIIB (C8166 cells); C8166 cells,2081.59 and 2018.59
same,TI,HIV-1IIIB(H9 cells); H9 cells,>303.03
"COc1ccccc1NC(=O)c1c(N)cccc1Oc1ccc([N+](=O)[O-])cc1 [compound 48, 2-amino-N-(2-methoxyphenyl)-6-(4-nitrop-henoxy)benzamide]",EC50,HIV-1IIIB(H9 cells); [2],35.87 µg/mL
"COc1ccccc1NC(=O)c1c(N(C)C)cccc1S(=O)(=O)c1ccc([N+](=O)[O-])cc1 [compound 58, 2-(dimethylamino)-N-(2-methoxyphenyl)-6-((4-nitrophenyl)sulfonyl)benzamide]",EC50,HIV-1IIIB (C8166 cells); [3],100 µg/mL
same,EC50,HIV-1IIIB(H9 cells); [4],103 µg/mL
"CNc1cccc(S(=O)(=O)c2ccc([N+](=O)[O-])cc2)c1C(=O)Nc1ccccc1OC [compound 59, N-(2-methoxyphenyl)-2-(methylamino)-6-((4-nitrophenyl)sulfonyl)benzamide]",EC50,HIV-1IIIB (C8166 cells); [3],63.7 µg/mL
same,EC50,HIV-1IIIB(H9 cells); [4],123 µg/mL
"COc1ccccc1NC(=O)c1c(NS(=O)(=O)c2ccccc2)cccc1S(=O)(=O)c1ccc([N+](=O)[O-])cc1 [compound 61, N-(2-methoxyphenyl)-2-((4-nitrophenyl)sulfonyl)-6-(phenylsulfonamido)benzamide]",EC50,HIV-1IIIB (C8166 cells); [3],46.9 µg/mL
same,EC50,HIV-1IIIB(H9 cells); [4],> 200 µg/mL
"COc1ccccc1NC(=O)c1c(NCP(=O)(OC(C)C)OC(C)C)cccc1Sc1ccc([N+](=O)[O-])cc1 [compound 65, diisopropyl(((2-((2-methoxyphenyl)carbamoyl)-3-((4-nitro-phenyl)thio)phenyl)amino)methyl)phosphonate]",TI,HIV-1IIIB (C8166 cells); C8166 cells,0.18
same,EC50,"HIV-1IIIB (C8166 cells); Human immunodeficiency virus 1, C8166",106 µg/mL
same,TI,HIV-1IIIB(H9 cells); H9 cells,0.13
same,EC50,"HIV-1IIIB(H9 cells); Human immunodeficiency virus 1, H9",> 200 µg/mL
"COc1ccccc1NC(=O)c1c(NC(=O)CN)cccc1S(=O)(=O)c1ccc([N+](=O)[O-])cc1.Cl.Cl [compound 67, 2-(2-aminoacetamido)-N-(2-methoxyphenyl)-6-((4-nitrophenyl)sulfonyl)benzamide hydrochloride hydrochloride]",safety at a high dose,Acute toxicity test,very safe
same,acute toxicity test,Acute toxicity test,no abnormal phenomenon occurred
same,max blood concentration of 46,[1],21.662 µg/mL
same,TI,HIV-2 ROD,161.78
same,TI,HIV-1IIIB (C8166 cells); C8166 cells,388.04
same,EC50,HIV-1IIIB (C8166 cells); [3],0.43 µg/mL
same,TI,HIV-1IIIB(H9 cells); H9 cells,790.58
same,EC50,HIV-1IIIB(H9 cells); [4],0.12 µg/mL
same,TI,HIV-2 CBL-20,87.82
"COc1ccccc1NC(=O)c1c(NC(=O)C(N)CCCCN)cccc1Sc1ccc([N+](=O)[O-])cc1.Cl (centres unmarked) [compound 68, 2-(2,6-diaminohexanamido)-N-(2-methoxyphenyl)-6-((4-nitrophenyl)thio)benzamide hydrochloride]",TI,HIV-1IIIB (C8166 cells); C8166 cells,122.45
same,EC50,HIV-1IIIB (C8166 cells); [3],0.94 µg/mL
same,TI,HIV-1IIIB(H9 cells); H9 cells,37.85
same,EC50,HIV-1IIIB(H9 cells); [4],2.38 µg/mL
"Nc1cccc(Sc2ccc([N+](=O)[O-])cc2)c1C(=O)Nc1ccccc1I [compound 71, 2-amino-N-(2-iodophenyl)-6-((4-nitrophenyl)thio)benzamide]",EC50,HIV-1IIIB (C8166 cells); [3],61.4 µg/mL
same,EC50,HIV-1IIIB(H9 cells); [4],> 200 µg/mL
"Nc1cccc(S(=O)(=O)c2ccc([N+](=O)[O-])cc2)c1C(=O)Nc1ccccc1I [compound 72, 2-amino-N-(2-iodophenyl)-6-((4-nitrophenyl)sulfonyl)benzamide]",EC50,HIV-1IIIB (C8166 cells); [3],16.2 µg/mL
same,EC50,HIV-1IIIB(H9 cells); [4],193 µg/mL
"COc1ccccc1NC(=O)c1c(N)cccc1Sc1ccc(C(=O)O)cc1 [compound 76, 4-((3-amino-2-((2-methoxyphenyl)carbamoyl)phenyl)thio)benzoic acid]",EC50,HIV-1IIIB (C8166 cells); [3],92 µg/mL
same,EC50,HIV-1IIIB(H9 cells); [4],100 µg/mL
"COc1ccccc1NC(=O)c1c(N)cccc1S(=O)(=O)c1ccc(C(=O)O)cc1 [compound 77, 4-((3-amino-2-((2-methoxyphenyl)carbamoyl)phenyl)sulfonyl)benzoic acid]",EC50,HIV-1IIIB (C8166 cells); [3],> 200 µg/mL
same,EC50,HIV-1IIIB(H9 cells); [4],> 200 µg/mL
"COc1ccccc1NC(=O)c1c(NCCN)cccc1Sc1ccc([N+](=O)[O-])cc1 [compound 78, 2-((2-aminoethyl)amino)-N-(2-methoxyphenyl)-6-((4-nitrophenyl)thio)benzamide]",EC50,HIV-1IIIB (C8166 cells); [3],16.9 µg/mL
same,EC50,HIV-1IIIB(H9 cells); [4],19.9 µg/mL
"COc1ccccc1NC(=O)c1c(NCC(N)=O)cccc1Sc1ccc([N+](=O)[O-])cc1 [compound 82, 2-((2-amino-2-oxoethyl)amino)-N-(2-methoxyphenyl)-6-((4-nitrophenyl)thio)benzamide]",EC50,HIV-1IIIB (C8166 cells); [3],> 200 µg/mL
same,EC50,HIV-1IIIB(H9 cells); [4],> 200 µg/mL
"COc1ccccc1NC(=O)c1c(NC(=O)C(N)Cc2ccccc2)cccc1S(=O)(=O)c1ccc([N+](=O)[O-])cc1 (centres unmarked) [compound 83, 2-(2-amino-3-phenylpropanamido)-N-(2-methoxyphenyl)-6-((4-nitrophenyl)sulfonyl)benzamide]",EC50,HIV-1IIIB (C8166 cells); [3],0.45 µg/mL
same,EC50,HIV-1IIIB(H9 cells); [4],0.15 µg/mL
